According to patent publication US12441754B2, “Galactoside inhibitor of galectins” (GALECTO BIOTECH AB, priority 2019, dated 2025):
Like-named read-outs stand apart in the source and are kept apart here.

Legend:
Galectin-3 = Galectin-3 (Homo sapiens, UniProt P17931); test: fluorescence anisotropy assay, compound as inhibitor of galectin / fluorescein tagged saccharide probe interaction; type: binding
Description: (§1) Anal. Biochem. 334: 36-47, (Sörme et al., 2004) and Monovalent interactions of Galectin-1 By Salomonsson, Emma; Larumbe, Amaia; Tejler, Johan; Tullberg, Erik; Rydberg, Hanna; Sundin, Anders; Khabut, Areej; Frejd, Torbjorn; Lobsanov, Yuri D.; Rini, James M.; et al, From Biochemistry (2010), 49(44), 9518-9532, (Salomonsson et al., 2010).

Galectin-1 = Galectin-1 (Homo sapiens, UniProt P09382); test: as above; type: binding
Sequence of Galectin-1 (P09382 whole entry): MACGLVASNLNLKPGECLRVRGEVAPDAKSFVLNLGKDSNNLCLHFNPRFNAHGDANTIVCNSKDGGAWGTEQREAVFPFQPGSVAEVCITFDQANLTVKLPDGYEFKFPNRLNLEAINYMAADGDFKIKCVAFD
Description: as §1

Sequence of Galectin-3 (P17931 whole entry): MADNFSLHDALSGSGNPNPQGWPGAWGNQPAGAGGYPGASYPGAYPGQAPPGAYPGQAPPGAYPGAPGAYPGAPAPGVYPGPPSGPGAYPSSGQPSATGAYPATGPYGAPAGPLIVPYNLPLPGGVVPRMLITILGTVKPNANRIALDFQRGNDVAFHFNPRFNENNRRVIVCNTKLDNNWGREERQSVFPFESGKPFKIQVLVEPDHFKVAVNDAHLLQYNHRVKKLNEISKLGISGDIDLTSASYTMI

CO[C@@H]1[C@@H](n2cc(-c3nccs3)nn2)[C@@H](O)[C@@H](CO)O[C@@H]1Sc1cncc(Br)c1 [Example 2, 5-Bromopyridin-3-yl 3-deoxy-2-O-methyl-3-[4-(2-thiazolyl)-1H-1,2,3-triazol-1-yl]-1-thio-α-D-galactopyranoside]
Kd (Galectin-3): 3000 nM
Kd (Galectin-1): 230 nM

CO[C@@H]1[C@@H](n2cc(-c3nccs3)nn2)[C@@H](O)[C@@H](CO)O[C@@H]1Sc1cc(Br)cnc1C#N [Example 3, 5-Bromo-2-cyanopyridin-3-yl 3-deoxy-2-O-methyl-3-[4-(2-thiazolyl)-1H-1,2,3-triazol-1-yl]-1-thio-α-D-galactopyranoside]
Kd (Galectin-3): 1100 nM
Kd (Galectin-1): 110 nM

CO[C@@H]1[C@@H](n2cc(-c3nccs3)nn2)[C@@H](O)[C@@H](CO)O[C@@H]1Sc1cc(Cl)cnc1C#N [Example 4, 5-Chloro-2-cyanopyridin-3-yl 3-deoxy-2-O-methyl-3-[4-(2-thiazolyl)-1H-1,2,3-triazol-1-yl]-1-thio-α-D-galactopyranoside]
Kd (Galectin-3): 1200 nM
Kd (Galectin-1): 110 nM

N#Cc1ncc(Cl)cc1S[C@H]1O[C@H](CO)[C@H](O)[C@H](n2cc(-c3nccs3)nn2)[C@H]1OCc1ccccc1 [Example 5, 5-Chloro-2-cyanopyridin-3-yl 2-O-benzyl-3-deoxy-3-[4-(2-thiazolyl)-1H-1,2,3-triazol-1-yl]-1-thio-α-D-galactopyranoside]
Kd (Galectin-3): 1800 nM
Kd (Galectin-1): 190 nM

N#Cc1ncc(Cl)cc1S[C@H]1O[C@H](CO)[C@H](O)[C@H](n2cc(-c3nccs3)nn2)[C@H]1OCc1cc(F)c(O)c(F)c1 [Example 6, 5-Chloro-2-cyanopyridin-3-yl 3-deoxy-2-O-(3,5-difluoro-4-hydroxybenzyl)-3-[4-(2-thiazolyl)-1H-1,2,3-triazol-1-yl]-1-thio-α-D-galactopyranoside]
Kd (Galectin-3): 950 nM
Kd (Galectin-1): 96 nM

CO[C@@H]1[C@@H](n2cc(-c3csc(O)n3)nn2)[C@@H](O)[C@@H](CO)O[C@@H]1Sc1cc(Cl)c(F)c(Cl)c1 [Example 7, 3,5-Dichloro-4-fluorophenyl 3-deoxy-3-[4-(2-hydroxythiazol-4-yl)-1H-1,2,3-triazol-1-yl]-2-O-methyl-1-thio-α-D-galactopyranoside]
Kd (Galectin-3): 2600 nM
Kd (Galectin-1; read-out: Galectin-1 Kd): 29 nM

CC(C)O[C@@H]1[C@@H](n2cc(-c3csc(O)n3)nn2)[C@@H](O)[C@@H](CO)O[C@@H]1Sc1ccc(Cl)c(Cl)c1 [Example 8, 3,4-Dichlorophenyl 3-deoxy-3-[4-(2-hydroxythiazol-4-yl)-1H-1,2,3-triazol-1-yl]-2-O-isopropyl-1-thio-α-D-galactopyranoside]
Kd (Galectin-3): > 100000 nM
Kd (Galectin-1): 100 nM

CO[C@@H]1[C@@H](n2cc(-c3csc(O)n3)nn2)[C@@H](O)[C@@H](CO)O[C@@H]1Sc1ccc(Cl)c(Cl)c1 [Example 9, 3,4-Dichlorophenyl 3-deoxy-3-[4-(2-hydroxythiazol-4-yl)-1H-1,2,3-triazol-1-yl]-2-O-methyl-1-thio-α-D-galactopyranoside]
Kd (Galectin-3): 4600 nM
Kd (Galectin-1; read-out: Galectin-1 Kd): 41 nM

OC[C@H]1O[C@H](Sc2ccc(Cl)c(Cl)c2)C[C@@H](n2cc(-c3csc(O)n3)nn2)[C@H]1O [Example 10, 3,4-Dichlorophenyl 2,3-dideoxy-3-[4-(2-hydroxythiazol-4-yl)-1H-1,2,3-triazol-1-yl]-1-thio-α-D-galactopyranoside]
Kd (Galectin-3): 5300 nM
Kd (Galectin-1): 82 nM

CO[C@@H]1[C@@H](n2cc(-c3nc(Cl)cs3)nn2)[C@@H](O)[C@@H](CO)O[C@@H]1Sc1cc(Br)cnc1C#N [Example 11, 5-Bromo-2-cyanopyridin-3-yl 3-[4-(4-chlorothiazol-2-yl)-1H-1,2,3-triazol-1-yl]-3-deoxy-2-O-methyl-1-thio-α-D-galactopyranoside]
Kd (Galectin-3): 170 nM
Kd (Galectin-1): 19 nM

CO[C@@H]1[C@@H](n2cc(-c3nc(Cl)cs3)nn2)[C@@H](O)[C@@H](CO)O[C@@H]1Sc1cnc(C#N)c(Br)c1 [Example 12, 3-Bromo-2-cyanopyridin-5-yl 3-[4-(4-chlorothiazol-2-yl)-1H-1,2,3-triazol-1-yl]-3-deoxy-2-O-methyl-1-thio-α-D-galactopyranoside]
Kd (Galectin-3): 270 nM
Kd (Galectin-1): 24 nM

CO[C@@H]1[C@@H](n2cc(-c3nc(Cl)cs3)nn2)[C@@H](O)[C@@H](CO)O[C@@H]1Sc1cc(Cl)cnc1C#N [Example 13, 5-Chloro-2-cyanopyridin-3-yl 3-[4-(4-chlorothiazol-2-yl)-1H-1,2,3-triazol-1-yl]-3-deoxy-2-O-methyl-1-thio-α-D-galactopyranoside]
Kd (Galectin-3): 160 nM
Kd (Galectin-1): 25 nM

CO[C@@H]1[C@@H](n2cc(-c3nc(Cl)cs3)nn2)[C@@H](O)[C@@H](CO)O[C@@H]1Sc1cnc(C#N)c(Cl)c1 [Example 14, 3-Chloro-2-cyanopyridin-5-yl 3-[4-(4-chlorothiazol-2-yl)-1H-1,2,3-triazol-1-yl]-3-deoxy-2-O-methyl-1-thio-α-D-galactopyranoside]
Kd (Galectin-3): 370 nM
Kd (Galectin-1): 30 nM

CO[C@@H]1[C@@H](n2cc(-c3csc(Cl)n3)nn2)[C@@H](O)[C@@H](CO)O[C@@H]1Sc1cc(Cl)cnc1C#N [Example 15, 5-Chloro-2-cyanopyridin-3-yl 3-[4-(2-chlorothiazol-4-yl)-1H-1,2,3-triazol-1-yl]-3-deoxy-2-O-methyl-1-thio-α-D-galactopyranoside]
Kd (Galectin-3): 200 nM
Kd (Galectin-1): 56 nM

CO[C@@H]1[C@@H](n2cc(-c3csc(N)n3)nn2)[C@@H](O)[C@@H](CO)O[C@@H]1Sc1cc(Cl)c(F)c(Cl)c1 [Example 16, 3,5-Dichloro-4-fluorophenyl 3-[4-(2-aminothiazol-4-yl)-1H-1,2,3-triazol-1-yl]-3-deoxy-2-O-methyl-1-thio-α-D-galactopyranoside]
Kd (Galectin-3): 8400 nM
Kd (Galectin-1; read-out: Galectin-1 Kd): 69 nM

CO[C@@H]1[C@@H](n2cc(-c3csc(N)n3)nn2)[C@@H](O)[C@@H](CO)O[C@@H]1Sc1cc(Cl)cnc1C#N [Example 17, 5-Chloro-2-cyanopyridin-3-yl 3-[4-(2-aminothiazol-4-yl)-1H-1,2,3-triazol-1-yl]-3-deoxy-2-O-methyl-1-thio-α-D-galactopyranoside]
Kd (Galectin-3): 1900 nM
Kd (Galectin-1): 33 nM

CO[C@@H]1[C@@H](n2cc(-c3csc(N)n3)nn2)[C@@H](O)[C@@H](CO)O[C@@H]1Sc1cc(Cl)cnc1C [Example 18, 5-Chloro-2-methylpyridin-3-yl 3-[4-(2-aminothiazol-4-yl)-1H-1,2,3-triazol-1-yl]-3-deoxy-2-O-methyl-1-thio-α-D-galactopyranoside]
Kd (Galectin-3): 5400 nM
Kd (Galectin-1): 120 nM

N#Cc1ncc(Cl)cc1S[C@H]1O[C@H](CO)[C@H](O)[C@H](n2cc(-c3csc(N)n3)nn2)[C@H]1OCc1ccccc1 [Example 19, 5-Chloro-2-cyanopyridin-3-yl 3-[4-(2-aminothiazol-4-yl)-1H-1,2,3-triazol-1-yl]-2-O-benzyl-3-deoxy-1-thio-α-D-galactopyranoside]
Kd (Galectin-3): 1800 nM
Kd (Galectin-1): 79 nM

CCO[C@@H]1[C@@H](n2cc(-c3csc(N)n3)nn2)[C@@H](O)[C@@H](CO)O[C@@H]1Sc1cc(Cl)cnc1C [Example 20, 5-Chloro-2-methylpyridin-3-yl 3-[4-(2-aminothiazol-4-yl)-1H-1,2,3-triazol-1-yl]-3-deoxy-2-O-ethyl-1-thio-α-D-galactopyranoside]
Kd (Galectin-3): 6200 nM
Kd (Galectin-1): 67 nM

CO[C@@H]1[C@@H](n2cc(-c3csc(N)n3)nn2)[C@@H](O)[C@@H](CO)O[C@@H]1Sc1cc(Cl)cnc1-c1cncnc1 [Example 21, 5-Chloro-2-(pyrimidin-5-yl)pyridin-3-yl 3-[4-(2-aminothiazol-4-yl)-1H-1,2,3-triazol-1-yl]-3-deoxy-2-O-methyl-1-thio-α-D-galactopyranoside]
Kd (Galectin-3): 2300 nM
Kd (Galectin-1): 45 nM

CO[C@@H]1[C@@H](n2cc(-c3csc(N)n3)nn2)[C@@H](O)[C@@H](CO)O[C@@H]1Sc1cc(Cl)cnc1-c1ccncc1 [Example 22, 5-Chloro-2-(pyridin-4-yl)pyridin-3-yl 3-[4-(2-aminothiazol-4-yl)-1H-1,2,3-triazol-1-yl]-3-deoxy-2-O-methyl-1-thio-α-D-galactopyranoside]
Kd (Galectin-3): 4100 nM
Kd (Galectin-1): 26 nM

CO[C@@H]1[C@@H](n2cc(-c3csc(N)n3)nn2)[C@@H](O)[C@@H](CO)O[C@@H]1Sc1cc(Cl)cnc1-c1cccnc1 [Example 23, 5-Chloro-2-(pyridin-3-yl)pyridin-3-yl 3-[4-(2-aminothiazol-4-yl)-1H-1,2,3-triazol-1-yl]-3-deoxy-2-O-methyl-1-thio-α-D-galactopyranoside]
Kd (Galectin-3): 4200 nM
Kd (Galectin-1): 30 nM

CO[C@@H]1[C@@H](n2cc(-c3csc(N)n3)nn2)[C@@H](O)[C@@H](CO)O[C@@H]1Sc1cc(Cl)cnc1C1=CCNCC1 [Example 24, 5-Chloro-2-(1,2,3,6-tetrahydropyridin-4-yl)pyridin-3-yl 3-[4-(2-aminothiazol-4-yl)-1H-1,2,3-triazol-1-yl]-3-deoxy-2-O-methyl-1-thio-α-D-galactopyranoside]
Kd (Galectin-3): 3300 nM
Kd (Galectin-1): 150 nM

N#Cc1ncc(Cl)cc1S[C@H]1O[C@H](CO)[C@H](O)[C@H](n2cc(-c3csc(N)n3)nn2)[C@H]1OCc1cc(F)c(O)c(F)c1 [Example 25, 5-Chloro-2-cyanopyridin-3-yl 3-[4-(2-aminothiazol-4-yl)-1H-1,2,3-triazol-1-yl]-3-deoxy-2-O-(3,5-difluoro-4-hydroxybenzyl)-1-thio-α-D-galactopyranoside]
Kd (Galectin-3): 740 nM
Kd (Galectin-1): 24 nM

CO[C@@H]1[C@@H](n2cc(-c3csc(N)n3)nn2)[C@@H](O)[C@@H](CO)O[C@@H]1Sc1cc(Cl)cnc1-c1ccccn1 [Example 26, 5-Chloro-2-(pyridin-2-yl)pyridin-3-yl 3-[4-(2-aminothiazol-4-yl)-1H-1,2,3-triazol-1-yl]-3-deoxy-2-O-methyl-1-thio-α-D-galactopyranoside]
Kd (Galectin-3): 1700 nM
Kd (Galectin-1): 17 nM
